Laboratory results taken from ChEMBL document CHEMBL4825770, “KRAS Mutant Combination Therapy for the Effective Treatment of Cancer” (ACS Med Chem Lett, 2021).

Key:
Type in all cases: functional
[1] = test system: NCI-H23; assay: Cytotoxicity against human NCI-H23 cells harboring KRAS G12C mutant assessed as reduction in cell viability measured after 72 hrs by CellTiter-Glo luciferase-based ATP detection assay; conditions: NCI-H23, 72 h
[2] = test system: NCI-H1373; assay: Cytotoxicity against human NCI-H1373 cells harboring KRAS G12C mutant assessed as reduction in cell viability measured after 72 hrs by CellTiter-Glo luciferase-based ATP detection assay; conditions: NCI-H1373, 72 h
[3] = test system: NCI-H358; assay: Cytotoxicity against human NCI-H358 cells harboring KRAS G12C mutant assessed as reduction in cell viability measured after 72 hrs by CellTiter-Glo luciferase-based ATP detection assay; conditions: NCI-H358, 72 h
[4] = test system: NCI-H2122; assay: Cytotoxicity against human NCI-H2122 cells harboring KRAS G12C mutant assessed as reduction in cell viability measured after 72 hrs by CellTiter-Glo luciferase-based ATP detection assay; conditions: NCI-H2122, 72 h
[5] = test system: NCI-H1792; assay: Cytotoxicity against human NCI-H1792 cells harboring KRAS G12C mutant assessed as reduction in cell viability measured after 72 hrs by CellTiter-Glo luciferase-based ATP detection assay; conditions: NCI-H1792, 72 h
[6] = test system: NCI-H1373; assay: Cytotoxicity against human NCI-H1373 cells harboring KRASG12C mutant assessed as reduction in cell viability measured after 72 hrs in presence of compound 1 by CellTiter-Glo luciferase-based ATP detection assay; conditions: NCI-H1373, 72 h
[7] = test system: NCI-H23; assay: Cytotoxicity against human NCI-H23 cells harboring KRASG12C mutant assessed as reduction in cell viability measured after 72 hrs in presence of compound 1 by CellTiter-Glo luciferase-based ATP detection assay; conditions: NCI-H23, 72 h
[8] = test system: NCI-H2122; assay: Cytotoxicity against human NCI-H2122 cells harboring KRASG12C mutant assessed as reduction in cell viability measured after 72 hrs in presence of compound 1 by CellTiter-Glo luciferase-based ATP detection assay; conditions: NCI-H2122, 72 h
[9] = test system: NCI-H1792; assay: Cytotoxicity against human NCI-H1792 cells harboring KRASG12C mutant assessed as reduction in cell viability measured after 72 hrs in presence of compound 1 by CellTiter-Glo luciferase-based ATP detection assay; conditions: NCI-H1792, 72 h
[10] = test system: NCI-H358; assay: Cytotoxicity against human NCI-H358 cells harboring KRASG12C mutant assessed as reduction in cell viability measured after 72 hrs in presence of compound 1 by CellTiter-Glo luciferase-based ATP detection assay; conditions: NCI-H358, 72 h

Row | SMILES | IC50 [1] [nM] | IC50 [2] [nM] | IC50 [3] [nM] | IC50 [4] [nM] | IC50 [5] [nM] | IC50 [6] [nM] | IC50 [7] [nM] | IC50 [8] [nM] | IC50 [9] [nM] | IC50 [10] [nM]
1 | C[C@H]1CNC(=O)c2cnn3ccc(nc23)N[C@H](C)c2cc(F)ccc2O1 [REPOTRECTINIB] | 4060 | 5000 | 2500 | 1940 | 1900 | – | – | – | – | –
2 | C=CC(=O)N1CCN(c2nc(=O)n(-c3c(C)ccnc3C(C)C)c3nc(-c4c(O)cccc4F)c(F)cc23)[C@@H](C)C1 [SOTORASIB] | > 10000 | > 10000 | 213 | – | > 10000 | 356 | 1500 | 90.5 | 3000 | 3
